Results from US6869964B2, “Heterocyclicsulfonamide hepatitis C virus inhibitors” (Bristol-Myers Squibb Company, priority 2002, dated 2005).

How the values were obtained:
[1] = system: HCV replicon in Huh7 cells; assay: HCV replicon cell-based assay (FRET); design: species or system HCV strain 1B; settings: Hepatitis C virus, Huh-7; replicon, activity range; read-out: EC50 a, b, c (Activity Table)
From the text: HCV Replicon Cell-based Assay
An HCV replicon whole cell system was established as described by Lohmann V, Korner F, Koch J, Herian U, Theilmann L, Bartenschlager R., Science 285(5424): 110-3 (1999). This system enabled us to evaluate the effects of our HCV Protease compounds on HICV RNA replication. Briefly, using the HCV strain 1B sequence described in the Lohmann paper (Assession number: AJ238799), an HCV cDNA was generated encoding the 5′ internal ribosome entry site (IRES), the neomycin resistance gene, the EMCV (encephalomyocarditis virus)-IRES and the HCV nonstructural proteins, NS3-NS5B, and 3′ non-translated region (NTR). In vitro transcripts of the cDNA were transfected into the human hepatoma cell line, Huh7. […] Resulting cell lines were characterized for positive and negative strand RNA production and protein production over time.
Huh7 cells, constitutively expressing the HCV replicon, were grown in Dulbecco's Modified Eagle Media (DMEM) containing 10% Fetal calf serum (FCS) and 1 mg/ml G418 (Gibco-BRL). Cells were seeded the night before (1.5×10^4 cells/well) in 96-well tissue-culture sterile plates. Compound and no compound controls were prepared in DMEM containing 4% FCS, 1:100 Penicillin/Streptomysin, 1:100 L-glutamine and 5% DMSO in the dilution plate (0.5% DMSO final concentration in the assay). Compound/DMSO mixes were added to the cells and incubated for 4 days at 37° C. After 4 days, plates were rinsed thoroughly with Phosphate-Buffered Saline (PBS) (3 times 150 μl). The cells were lysed with 25 μl of a lysis assay reagent containing the FRET peptide (RET S1, as described for the in vitro enzyme assay). The lysis assay reagent was made from 5× cell Luciferase cell culture lysis reagent(Promega #E153A) diluted to 1× with distilled water, NaCl added to 150 mM final, the FRET peptide diluted to 10 μM final from a 2 mM stock in 100% DMSO. The plate was then placed into the Cytofluor 4000 instrument which had been set to 340 nm excitation/490 emission, automatic mode for 21 cycles and the plate read in a kinetic mode. EC50 determinations were carried out as described for the IC50 determinations.

[2] = target: T1, HCV NS3/4A protease complex (BMS strain) (Hepatitis C virus genotype 1a, UniProt P27958, C1454S); assay: Recombinant HCV NS3/4A protease complex FRET peptide assay, BMS strain; type: biochemical, HCV genotype 1a; settings: NS3/4A BMS Strain, activity range; read-out: IC50 a, b, c (Activity Table)
T1 construct: HCV NS3/4A protease complex (amino acids 1027 to 1711); inferred from pET21b vector and Ni-NTA purification; made in house; host or cells: Escherichia coli BL21 (DE3), pET21b
T1 sequence (P27958 1027-1657 C1454S): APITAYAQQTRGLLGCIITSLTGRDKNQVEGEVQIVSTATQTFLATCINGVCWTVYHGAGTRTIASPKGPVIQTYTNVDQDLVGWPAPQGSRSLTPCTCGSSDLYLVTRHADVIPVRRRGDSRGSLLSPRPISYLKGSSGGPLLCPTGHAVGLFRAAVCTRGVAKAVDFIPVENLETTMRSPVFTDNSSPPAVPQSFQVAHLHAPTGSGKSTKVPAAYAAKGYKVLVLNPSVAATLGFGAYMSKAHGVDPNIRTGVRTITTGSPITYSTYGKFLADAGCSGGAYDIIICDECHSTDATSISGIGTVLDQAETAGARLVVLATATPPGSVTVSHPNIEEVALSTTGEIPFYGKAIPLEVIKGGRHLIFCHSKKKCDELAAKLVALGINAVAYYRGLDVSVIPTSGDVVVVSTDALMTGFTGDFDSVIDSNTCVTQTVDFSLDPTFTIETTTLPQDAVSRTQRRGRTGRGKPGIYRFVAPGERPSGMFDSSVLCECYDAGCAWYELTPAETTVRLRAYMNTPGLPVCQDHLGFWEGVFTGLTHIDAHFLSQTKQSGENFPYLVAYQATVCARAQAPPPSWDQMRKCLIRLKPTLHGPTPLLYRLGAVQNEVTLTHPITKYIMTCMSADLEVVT
T1 sequence (P27958 1658-1711 partner, looked up, stated change not applied): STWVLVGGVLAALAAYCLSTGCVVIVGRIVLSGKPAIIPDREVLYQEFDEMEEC
From the text: Recombinant HCV NS3/4A Protease Complex FRET Peptide Assay
The purpose of this in vitro assay was to measure the inhibition of HCV NS3 protease complexes, derived from the BMS, H77C or J4l6S strains, as described below, by compounds of the present invention. This assay provides an indication of how effective compounds of the present invention would be in inhibiting HCV proteolytic activity.
Serum from an HCV-infected patient was obtained from Dr. T. Wright, San Francisco Hospital. An engineered full-length cDNA template of the HCV genome (BMS strain) was constructed from DNA fragments obtained by reverse transcription-PCR (RT-PCR) of serum RNA and using primers selected on the basis of homology between other genotype la strains. From the determination of the entire genome sequence, a genotype la was assigned to the HCV isolate according to the classification of Simmonds et al. (See P Simmonds, K A Rose, S Graham, S W Chan, F McOmish, B C Dow, E A Follett, P L Yap and H Marsden, J. Clin. Microbiol., 31(6), 1493-1503 (1993)). […] The infectious clones, H77C (1a genotype) and J4 L6S (1b genotype) were obtained from R. Purcell (NIH) and the sequences are published in Genbank (AAB67036, see Yanagi, M., Purcell, R. H., Emerson, S. U. and Bukh, J. Proc. Natl. Acad. Sci. U.S.A. 94(16),8738-8743 (1997); AF054247, see Yanagi, M., St Claire, M., Shapiro, M., Emerson, S. U., Purcell, R. H. and Bukh, J, Virology 244 (1), 161-172. (1998)).
The BMS, H77C and J4 L6S strains were used for production of recombinant NS3/4A protease complexes. DNA encoding the recombinant HCV NS3/4A protease complex (amino acids 1027 to 1711) for these strains were manipulated as described by P. Gallinari et al. (see Gallinari P, Paolini C, Brennan D, Nardi C, Steinkuhler C, De Francesco R. Biochemistry. 38(17):5620-32, (1999)). Briefly, a three-lysine solubilizing tail was added at the 3′-end of the NS4A coding region. The cysteine in the P1 position of the NS4A-NS4B cleavage site (amino acid 1711) was changed to a glycine to avoid the proteolytic cleavage of the lysine tag. Furthermore, a cysteine to serine mutation was introduced by PCR at amino acid position 1454 to prevent the autolytic cleavage in the NS3 helicase domain. The variant DNA fragment was cloned in the pET21b bacterial expression vector (Novagen) and the NS3/4A complex was expressed in Escherichia coli strain BL21 (DE3) (Invitrogen) following the protocol described by P. Gallinari et al. (see Gallinari P, Brennan D, Nardi C, Brunetti M, Tomei L, Steinkuhler C, De Francesco R., J Virol. 72(8):6758-69 (1998)) with modifications. Briefly, NS3/4A expression was induced with 0.5 mM Isopropyl β-D-1-thiogalactopyranoside (IPTG) for 22 hr at 20° C. A typical fermentation (10 L) yielded approximately 80 g of wet cell paste. The cells were resuspended in lysis buffer (10 mL/g) consisting of 25 mM N-(2-Hydroxyethyl)Piperazine-N′-(2-Ethane Sulfonic acid) (HEPES), pH7.5, 20% glycerol, 500 mM Sodium Chloride (NaCl), 0.5% Triton-X100, 1 ug/ml lysozyme, 5 mM Magnesium Chloride (MgCl2), 1 ug/ml DnaseI, 5 mM β-Mercaptoethanol (βME), Protease inhibitor—Ethylenediamine Tetraacetic acid (EDTA) free (Roche), homogenized and incubated for 20 mins at 4° C. The homogenate was sonicated and clarified by ultra-centrifugation at 235000 g for lhr at 4° C. Imidazole was added to the supernatant to a final concentration of 15 mM and the pH adjusted to 8.0. The crude protein extract was loaded on a Nickel—Nitrilotriacetic acid (Ni—NTA) column pre-equilibrated with buffer B (25 mM HEPES, pH8.0, 20% glycerol, 500 mM NaCl, 0.5% Triton-X100, 15 mM imidazole, 5 mM βME). The sample was loaded at a flow rate of 1 mL/min. The column was washed with 15 column volumes of buffer C (same as buffer B except with 0.2% Triton-X100). The protein was eluted with 5 column volumes of buffer D (same as buffer C except with 200 mM Imidazole). […]

| SMILES | EC50 [1] [nM] | IC50 [2] [nM] |
| --- | --- | --- |
| C=CC1C[C@]1(NC(=O)[C@@H]1C[C@@H](Oc2cc(-c3ccccc3)nc3cc(OC)ccc23)CN1C(=O)[C@@H](NC(=O)OC(C)(C)C)C(C)(C)C)C(=O)NS(=O)(=O)c1nnc(NC(C)=O)s1 (stereo in doubt) [Compound 12, {1-[2-[1-(5-Acetylamino-[1,3,4]thiadiazole-2-sulfonylaminocarbonyl)-2-vinylcyclopropylcarbamoyl]-4-(7-methoxy-2-phenyl-quinolin-4-yloxy)-pyrrolidine-1-carbonyl]-2,2-dimethylpropyl}carbamic acid tert-butyl ester] | 1000 to 10000 | 100 to 1000 |
| C=CC1C[C@]1(NC(=O)[C@@H]1C[C@@H](Oc2cc(-c3ccccc3)nc3cc(OC)ccc23)CN1C(=O)[C@@H](NC(=O)OC(C)(C)C)C(C)(C)C)C(=O)NS(=O)(=O)c1c(C)noc1C (stereo in doubt) [Compound 14, {1-[2-[1-(3,5-Dimethylisoxazole-4-sulfonylaminocarbonyl)-2-vinyl-cyclopropylcarbamoyl]-4-(7-methoxy-2-phenyl-quinolin-4-yloxy)-pyrrolidine-1-carbonyl]-2,2-dimethyl-propyl}-carbamic acid tert-butyl ester] | 100 to 1000 | < 100 |
| C=CC1C[C@]1(NC(=O)[C@@H]1C[C@@H](Oc2cc(-c3ccccc3)nc3cc(OC)ccc23)CN1C(=O)[C@@H](NC(=O)OC(C)(C)C)C(C)(C)C)C(=O)NS(=O)(=O)c1nc2ccc(OCC)cc2s1 (stereo in doubt) [Compound 15, {1-[2-[1-(6-Ethoxybenzothiazole-2-sulfonylaminocarbonyl)-2-vinyl-cyclopropylcarbamoyl]-4-(7-methoxy-2-phenyl-quinolin-4-yloxy)-pyrrolidine-1-carbonyl]-2,2-dimethylpropyl}-carbamic acid tert-butyl ester] | 1000 to 10000 | 100 to 1000 |
| C=CC1C[C@]1(NC(=O)[C@@H]1C[C@@H](Oc2cc(-c3ccccc3)nc3cc(OC)ccc23)CN1C(=O)[C@@H](NC(=O)OC(C)(C)C)C(C)(C)C)C(=O)NS(=O)(=O)c1cc([N+](=O)[O-])c(Cl)s1 (stereo in doubt) [Compound 16, {1-[2-[1-(5-Chloro-4-nitro-thiophene-2-sulfonylaminocarbonyl)-2-vinylcyclopropylcarbamoyl]-4-(7-methoxy-2-phenyl-quinolin-4-yloxy)-pyrrolidine-1-carbonyl]-2,2-dimethyl-propyl}carbamic acid tert-butyl ester] | 100 to 1000 | < 100 |
| C=CC1C[C@]1(NC(=O)[C@@H]1C[C@@H](Oc2cc(-c3ccccc3)nc3cc(OC)ccc23)CN1C(=O)[C@@H](NC(=O)OC(C)(C)C)C(C)(C)C)C(=O)NS(=O)(=O)c1ccc(-c2cc(C(F)(F)F)nn2C)s1 (stereo in doubt) [Compound 17, [1-(4-(7-Methoxy-2-phenyl-quinolin-4-yloxy)-2-{1-[5-(2-methyl-5-trifluoromethyl-2H-pyrazol-3-yl)thiophene-2-sulfonylaminocarbonyl]-2-vinyl-cyclopropylcarbamoyl}-pyrrolidine-1-carbonyl)-2,2-dimethylpropyl]carbamic acid tert-butyl ester] | 100 to 1000 | < 100 |
| C=CC1C[C@]1(NC(=O)[C@@H]1C[C@@H](Oc2cc(-c3ccccc3)nc3cc(OC)ccc23)CN1C(=O)[C@@H](NC(=O)OC(C)(C)C)C(C)(C)C)C(=O)NS(=O)(=O)c1cc(Cl)c(Br)s1 (some centres unmarked) [Compound 6, {-[2-{1-[5-Bromo-4-chlorothiophene-2-sulfonylamino-carbonyl]-2-vinylcyclopropylcarbamoyl}-4-(7-methoxy-2-phenyl-quinolin-4-yloxy)pyrrolidine-1-carbonyl]-2,2-dimethylpropyl}carbarmic acid tert-butyl ester] | 100 to 1000 | < 100 |
| C=CC1C[C@]1(NC(=O)[C@@H]1C[C@@H](Oc2cc(-c3ccccc3)nc3cc(OC)ccc23)CN1C(=O)[C@@H](NC(=O)OC(C)(C)C)C(C)(C)C)C(=O)NS(=O)(=O)c1nc(NC(C)=O)sc1C (some centres unmarked) [Compound 11, {1-[2-{1-[2-Acetylamino-5-methylthiazole-4-sulfonylaminocarbonyl]-2-vinylcyclopropylcarbamoyl}-4-(7-methoxy-2-phenyl-quinolin-4-yloxy)pyrrolidine-1-carbony]-2,2-dimethylpropyl}carbamic acid tert-butyl ester] | 1000 to 10000 | < 100 |
